Reference: US5506217A, “Phosphonates as anti-cancer agents” (The University of British Columbia, priority 1994, dated 1996)
Where two headings read alike, the source gives them in different places.

Legend:
B-16/F10 melanoma cells = test: B-16/F10 melanoma metastasis in C57BL/6 mice; type: in vivo; conditions: 10 mg/kg IV (day 0, 4 and 8)
Protocol: Highly metastatic B-16/F10 melanoma cells were injected into the tail veins of female C57BL/6 mice (1×10^5 cells per mouse). Treatment of one group of mice with the phosphonate compound of the above formula (compound VIII), dissolved into 0.5mL ethanol, 0.5 mL cremaphor and 9.0 mL phosphate buffered saline, began three days after the tumor cells were injected. lntramuscular injections of 0.2 mL of the phosphonate emulsion (10 mg/kg/day) were given for 5 days per week for 2 weeks. A second group of mice were treated with Adriamycin (10 mg/kg given intravenously on days 0, 4 and 8) as a known anti-cancer drug control group, while a third group of mice received the vehicle emulsion alone. The mice were examined every day for general health, behaviour and body weight. Counts of metastatic melanomic tumor colonies found in the lungs, general observations of metastasis to distant organs and examination of organs (liver, kidneys, lungs and spleen) were taken at autopsy 4 weeks after treatment.

WEHI-3B tumor cells [1] = test: 3H-thymidine incorporation assay; type: cell-based; conditions: Mus musculus, WEHI3B; for viability at 6.25 µM / viability at 12.5 µM / viability at 25 µM / viability at 50 µM: percent [3H]thymidine uptake, WEHI-3B, read-out: Cell Viability (% of Control); for viability at 12.5 µM: 12.50 μM
Protocol: (§1) Experiments were performed using a number of different rumor cell lines. Tumor cells were cultured in RPMI-1640 medium supplemented with 10% fetal bovine serum, penicillin (50 units/mL), streptomycin (50 μg/mL) and mercaptoethanol (5 μg/mL) in an atmosphere of 5% CO2. The cells were passaged weekly by serial 1/10 to 1/10,000 dilutions. The cell viability and growth were constantly monitored by staining with trypan blue exclusion dye or the incorporation of tritiated thymidine.
(§2) Inhibition of ^3 H-thymidine incorporation into the DNA of cells by a test compound is an indirect measurement of cell kill or growth inhibition, and reflects the anti-cancer activity of the compound.
Tumor cells (2×104 ^4 cells/well) were placed in 200 μL of medium in 96-well plastic microtiter plates; a further 5 μL of medium either with or without phosphonate was added. […] The cells were then harvested using a Brandel cell harvester (model M-12) and collected on Whatman glass microfilters. The radioactivity associated with the filters was quantified in a liquid scintillation counter, and the amount of ^3 H-thymidine incorporated into tumor cells treated with the phosphonate compound was calculated as a percentage of the amount of ^3 H-thymidine incorporated into untreated tumor cells.
The biological activities of 4-hexadecylthio-3(S ) -3-methoxybutane-l-phosponocholine and its enantiomer 4-hexadecylthio-3(R)-3-methoxybutane-1-phosphonocholine were studied on several cancer cell lines. […] The cell viability, was determined as percent[^3 H]thymidine uptake into the cell DNA. The following results are mean of five samples ± S.D.

WEHI-3B tumor cells [2] = test: colonogenic cell survival assay; type: cell-based; conditions: Mus musculus, WEHI3B, 120 h, methyl cellulose medium, five days, read-out: WEHI-3B Colonies Formed (Percentage of Control)
Protocol: Inhibition of colony formation in soft agar medium (colonogenic cell survival assay) is a more rigorous and direct measurement of cell kill or growth inhibition, and reflects the anti-cancer activity of the test compound. Briefly, tumor cells were cultured in petri dishes in methylcellulose, with or without a phosphonate test compound, and the number of colonies formed during a 5-day incubation period were counted.
Table 17 tabulates data obtained with two differrent phosphonate analogs using a colonogenic assay. Colonogenic assay is one of the most trusted tests for determination of effectiveness of an anti-cancer agent. The test is based on the formation of tumor colonies in vitro in a methyl cellulose or soft agar medium. The following results were obtained with the formation of colonies in methyl cellulose medium after five days in the presence or absence of four phosphonate analogs, two with a thioalkyl chain and two with an alkyloxy chain.

HL-60 tumor cells = test: 3H-thymidine incorporation assay; type: cell-based; conditions: Homo sapiens, HL-60 cells, read-out: Thymidine uptake (% of control)
Protocol: as §1, §2
Tumor cells (2×104 ^4 cells/well) were placed in 200 μL of medium in 96-well plastic microtiter plates; a further 5 μL of medium either with or without phosphonate was added. After incubation for 24, 48 or 72 hours at 37° C. in a humidified atmosphere containing 5% CO2, the wells were pulsed with 0.1 μCi of ^3 H-thymidine for an additional 24 hours. The cells were then harvested using a Brandel cell harvester (model M-12) and collected on Whatman glass microfilters. The radioactivity associated with the filters was quantified in a liquid scintillation counter, and the amount of ^3 H-thymidine incorporated into tumor cells treated with the phosphonate compound was calculated as a percentage of the amount of ^3 H-thymidine incorporated into untreated tumor cells.

[3] = 24 hours, read-out: Thymidine uptake (% of control)
[4] = 48 hours, WEHI-3B cells, read-out: Thymidine uptake (% of control)
[5] = Table 3: 48 hours in title (text: 72 hours), WEHI-3B cells, read-out: Thymidine uptake (% of control)
[6] = Table 3: 48 hours in title (text: 72 hours)

COc1cccc2c1C(=O)c1c(O)c3c(c(O)c1C2=O)C[C@@](O)(C(=O)CO)C[C@@H]3O[C@H]1C[C@H](N)[C@H](O)[C@H](C)O1 [Adriamycin, reference compound]
melanomic tumor colonies in the lungs (in words) (B-16/F10 melanoma cells): none of the Adriamycin-treated mice developed melanomic tumor colonies in their lungs
Melanomic tumor colonies found in the lungs at autopsy (B-16/F10 melanoma cells; Mouse 1): 0
Melanomic tumor colonies found in the lungs at autopsy (B-16/F10 melanoma cells; Mouse 2): 0
Melanomic tumor colonies found in the lungs at autopsy (B-16/F10 melanoma cells; Mouse 3): 0
Melanomic tumor colonies found in the lungs at autopsy (B-16/F10 melanoma cells; Mouse 4): 0
Melanomic tumor colonies found in the lungs at autopsy (B-16/F10 melanoma cells; Mouse 5): 0
Melanomic tumor colonies found in the lungs at autopsy (B-16/F10 melanoma cells; Mouse 6): 0

CCCCCCCCCCCCCCCCSC[C@H](CCP(=O)([O-])OCC[N+](C)(C)C)OC [Compound 1, 4hexadecylthio-3-O-methyl-3(S)-butane-phosphonocholine]
viability at 6.25 µM (WEHI-3B tumor cells [1]): 55 ± 0.5%
viability at 12.5 µM (WEHI-3B tumor cells [1]): 31 ± 3.4%
viability at 25 µM (WEHI-3B tumor cells [1]): 21 ± 0.2%
viability at 50 µM (WEHI-3B tumor cells [1]): 2 ± 1.4%
activity at 0.6 µM (WEHI-3B tumor cells [2]): 88%
activity at 1.25 µM (WEHI-3B tumor cells [2]): 95%
activity at 2.5 µM (WEHI-3B tumor cells [2]): 55%
activity at 5 µM (WEHI-3B tumor cells [2]): 52%
activity at 10 µM (WEHI-3B tumor cells [2]): 22%
activity at 20 µM (WEHI-3B tumor cells [2]): 9%

CCCCCCCCCCCCCCCCSC[C@@H](CCP(=O)([O-])OCC[N+](C)(C)C)OC [Compound 2, 4hexadecylthio-3-O-methyl-3(R)-butane-phosphonocholine]
viability at 6.25 µM (WEHI-3B tumor cells [1]): 61 ± 0.4%
viability at 12.5 µM (WEHI-3B tumor cells [1]): 24 ± 2.7%
viability at 25 µM (WEHI-3B tumor cells [1]): 22 ± 4.6%
viability at 50 µM (WEHI-3B tumor cells [1]): 12 ± 1.2%
activity at 0.6 µM (WEHI-3B tumor cells [2]): 54%
activity at 1.25 µM (WEHI-3B tumor cells [2]): 44%
activity at 2.5 µM (WEHI-3B tumor cells [2]): 36%
activity at 5 µM (WEHI-3B tumor cells [2]): 21%
activity at 10 µM (WEHI-3B tumor cells [2]): 5%
activity at 20 µM (WEHI-3B tumor cells [2]): 0%

CCCCCCCCCCCCCCCCCCOCC(CP(=O)([O-])OCC[N+](C)(C)C)OC (stereo not shown) [compound V]
activity at 0.62 µM (WEHI-3B tumor cells [1]; [3]): 137 ± 6%
activity at 0.62 µM (WEHI-3B tumor cells [1]; [4]): 93 ± 6%
activity at 0.62 µM (WEHI-3B tumor cells [1]; [5]): 85 ± 3%
activity at 1.25 µM (WEHI-3B tumor cells [1]; [3]): 93 ± 7%
activity at 1.25 µM (WEHI-3B tumor cells [1]; [4]): 90 ± 5%
activity at 1.25 µM (WEHI-3B tumor cells [1]; [5]): 86 ± 4%
activity at 2.5 µM (WEHI-3B tumor cells [1]; [3]): 91 ± 4%
activity at 2.5 µM (WEHI-3B tumor cells [1]; [4]): 86 ± 8%
activity at 2.5 µM (WEHI-3B tumor cells [1]; [5]): 82 ± 6%
activity at 5 µM (WEHI-3B tumor cells [1]; [3]): 88 ± 11%
activity at 5 µM (WEHI-3B tumor cells [1]; [4]): 61 ± 6%
activity at 5 µM (WEHI-3B tumor cells [1]; [5]): 60 ± 4%
activity at 10 µM (WEHI-3B tumor cells [1]; [3]): 76 ± 6%
activity at 10 µM (WEHI-3B tumor cells [1]; [4]): 23 ± 2%
activity at 10 µM (WEHI-3B tumor cells [1]; [5]): 26 ± 3%
activity at 20 µM (WEHI-3B tumor cells [1]; [3]): 48 ± 4%
activity at 20 µM (WEHI-3B tumor cells [1]; [4]): 18 ± 8%
activity at 20 µM (WEHI-3B tumor cells [1]; [5]): 10 ± 3%
activity at 40 µM (WEHI-3B tumor cells [1]; 40 μM, 24 hours, read-out: Thymidine uptake (% of control)): 43 ± 15%
activity at 0.62 µM (HL-60 tumor cells; 48 hours): 84 ± 5%
activity at 0.62 µM (HL-60 tumor cells; [6]): 93 ± 4%
activity at 1.25 µM (HL-60 tumor cells; 48 hours): 76 ± 4%
activity at 1.25 µM (HL-60 tumor cells; [6]): 81 ± 4%
activity at 2.5 µM (HL-60 tumor cells; 48 hours): 63 ± 4%
activity at 2.5 µM (HL-60 tumor cells; [6]): 66 ± 3%
activity at 5 µM (HL-60 tumor cells; 48 hours): 24 ± 3%
activity at 5 µM (HL-60 tumor cells; [6]): 16 ± 4%
activity at 10 µM (HL-60 tumor cells; 48 hours): 3 ± 2%
activity at 10 µM (HL-60 tumor cells; [6]): 5 ± 1%
activity at 20 µM (HL-60 tumor cells; 48 hours): 1%
activity at 20 µM (HL-60 tumor cells; [6]): 1 ± 0.9%
